For orientation: Ki means a measure of affinity in units of concentration, obtained from inhibition or displacement. High values mean weaker binding, low ones tighter binding. What is called IC50 is the point on the concentration scale where inhibition reaches its midpoint. The low end stands for inhibition by little substance, the high end for a need for much substance.

Drawing on the Kinase Knowledgebase extract (Sharma et al. 2016), this text covers Ki and IC50 for 15 compounds.

In this assay the target is MAPK14 (human) (UniProt Q16539). Put plainly: Inhibition of MAPK14 Kinase Activity.
Chain of MAPK14 (human) (Q16539 whole entry, looked up): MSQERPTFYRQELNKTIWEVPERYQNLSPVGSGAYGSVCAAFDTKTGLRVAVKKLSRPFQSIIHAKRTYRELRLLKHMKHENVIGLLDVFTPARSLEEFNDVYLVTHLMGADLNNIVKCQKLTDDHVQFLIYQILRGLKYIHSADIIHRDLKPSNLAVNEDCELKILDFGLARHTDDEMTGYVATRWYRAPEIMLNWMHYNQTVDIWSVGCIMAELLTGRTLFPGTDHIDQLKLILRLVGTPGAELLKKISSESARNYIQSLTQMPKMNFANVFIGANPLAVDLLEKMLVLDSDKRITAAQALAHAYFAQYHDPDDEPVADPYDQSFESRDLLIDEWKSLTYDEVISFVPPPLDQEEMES

`CCn1nccc1NC(=O)c1ccc(C)c(Nc2ncnc(NC3CCCC3)c2C#N)c1` returned a Ki of 14 nM. In the case of `CNc1ncnc(Nc2cc(C(=O)NOC)ccc2C)c1C#N`, the Ki amounted to 16 nM. With `CONC(=O)c1ccc(C)c(Nc2nc(N)nc(N(C)CC(C)(C)C)c2C#N)c1`, the Ki amounted to 0.05 nM. On to `Cc1ccc(C(=O)Nc2ccon2)cc1Nc1ncnc(NC2CCCC2)c1C#N`, for which the inhibitory constant (Ki) was determined as 1.6 nM. Against the preceding compound, the Ki is about 32-fold higher. Same read-out and setting: under `CNc1nc(Nc2cc(C(=O)NOC)ccc2C)c(C#N)c(N(C)CC(C)(C)C)n1` stands 0.047 nM.

The compound `CCn1nccc1NC(=O)c1ccc(C)c(Nc2nc(N)nc(NC(C)C)c2C#N)c1` displayed an IC50 of 1.5 nM and a Ki of 1.5 nM.

Take `Cc1ccc(C(=O)Nc2ccon2)cc1Nc1ncnc(NC(C)C)c1C#N`: the Ki came to 0.41 nM.

Turning to `CONC(=O)c1ccc(C)c(Nc2ncnc(N(C)CC(C)(C)C)c2C#N)c1`, the Ki was 0.15 nM. Consider `CCn1nccc1NC(=O)c1ccc(C)c(Nc2nc(N)nc(NC3CCCC3)c2C#N)c1`, for which the IC50 was found to be 1.9 nM and the Ki amounted to 1.9 nM.

Consider `CCn1nccc1NC(=O)c1ccc(C)c(Nc2ncnc(NC(C)C)c2C#N)c1`, for which the Ki is 15 nM. Still for that read-out and setting: to `Cc1ccc(C(=O)Nc2ccon2)cc1Nc1nc(N)nc(NC2CCCC2)c1C#N` belongs 0.16 nM.

`Cc1ccc(C(=O)Nc2ccon2)cc1Nc1nc(N)nc(NC(C)C)c1C#N` returned a Ki of 0.057 nM. The compound `CONC(=O)c1ccc(C)c(Nc2ncnc(NC(C)C)c2C#N)c1` showed a Ki of 0.61 nM.

As to `CCCNc1ncnc(Nc2cc(C(=O)NOC)ccc2C)c1C#N`, the Ki was 0.97 nM. Regarding `CONC(=O)c1ccc(C)c(Nc2nc(N3CCCN(C)CC3)nc(N(C)CC(C)(C)C)c2C#N)c1`, the Ki worked out at 0.057 nM.
